Usually IC50 stands for the concentration that inhibits the measured activity by half.

Bounds are passed on as bounds.

The values below come from patent US4444775A, “Substituted imidazo[1,5-A]pyridines” (Ciba-Geigy Corporation, priority 1982, dated 1984).

Test [1] deals with T1, thromboxane synthetase from lysed human platelets (Homo sapiens, UniProt P24557).
T1 construct: crude microsomal preparation of thromboxane synthetase from lysed human platelets; from tissue; host or cells: human platelets, lysed; crude microsomal preparation
T1 sequence (P24557 1-533): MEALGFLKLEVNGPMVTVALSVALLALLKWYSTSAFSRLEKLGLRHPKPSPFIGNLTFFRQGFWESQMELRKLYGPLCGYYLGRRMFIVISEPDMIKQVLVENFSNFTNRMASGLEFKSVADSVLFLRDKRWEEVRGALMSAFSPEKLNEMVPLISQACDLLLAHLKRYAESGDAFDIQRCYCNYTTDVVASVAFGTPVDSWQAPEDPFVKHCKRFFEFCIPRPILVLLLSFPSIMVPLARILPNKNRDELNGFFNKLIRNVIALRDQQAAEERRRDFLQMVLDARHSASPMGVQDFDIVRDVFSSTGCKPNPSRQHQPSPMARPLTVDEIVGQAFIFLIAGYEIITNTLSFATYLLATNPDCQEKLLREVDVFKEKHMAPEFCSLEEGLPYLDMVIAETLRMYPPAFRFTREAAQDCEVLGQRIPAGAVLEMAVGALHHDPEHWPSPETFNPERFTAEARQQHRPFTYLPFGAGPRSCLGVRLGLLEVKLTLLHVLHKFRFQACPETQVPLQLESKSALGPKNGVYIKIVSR
In words: in vitro inhibition of the thromboxane synthetase enzyme (TxB2/PGF2α+β ratio from 14C-arachidonic acid). Particulars: human platelet microsomal enzyme, 30 minutes incubation. The format is biochemical. As for the experimental part: Res. Comm. 74, 1432 (1977); the testing procedure is as follows:
The test compound (dissolved in buffer, or if necessary, in a small amount of ethanol) is added to the incubation medium. […] The radioactive products and excess substrate are extracted into ethyl acetate; the extract is evaporated to dryness; the residue is dissolved in acetone, spotted on thin-layer plates and chromatographed in the solvent system toluene: acetone: glacial acetic acid (100 volumes: 100 volumes: 3 volumes).

The target of test [2] is T2, prostaglandin cyclooxygenase (sheep seminal vesicle microsomes) (Ovis aries, UniProt P05979).
T2 construct: Lyophilized sheep seminal vesicle microsomes are utilized as the prostaglandin-synthesizing enzyme preparation; from tissue; host or cells: sheep seminal vesicle microsomes, lyophilized
T2 sequence (P05979 25-600): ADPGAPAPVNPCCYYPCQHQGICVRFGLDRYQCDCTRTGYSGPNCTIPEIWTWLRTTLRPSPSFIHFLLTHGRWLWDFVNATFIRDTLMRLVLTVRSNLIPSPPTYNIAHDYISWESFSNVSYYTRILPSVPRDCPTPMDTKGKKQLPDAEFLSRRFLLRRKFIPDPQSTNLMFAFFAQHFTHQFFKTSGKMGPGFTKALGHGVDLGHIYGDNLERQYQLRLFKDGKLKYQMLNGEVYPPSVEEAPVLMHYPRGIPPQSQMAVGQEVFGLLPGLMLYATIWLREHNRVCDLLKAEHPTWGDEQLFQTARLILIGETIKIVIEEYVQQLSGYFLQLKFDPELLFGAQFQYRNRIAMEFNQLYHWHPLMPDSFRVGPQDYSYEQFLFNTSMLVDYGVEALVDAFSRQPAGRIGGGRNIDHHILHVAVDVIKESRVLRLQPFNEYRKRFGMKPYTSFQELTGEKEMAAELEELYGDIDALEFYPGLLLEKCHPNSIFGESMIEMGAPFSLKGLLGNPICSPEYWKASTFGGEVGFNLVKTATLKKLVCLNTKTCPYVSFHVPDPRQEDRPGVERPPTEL
Briefly: in-vitro effect on prostaglandin cyclooxygenase (conversion of 14C-arachidonic acid to PGE2). The format is biochemical. Particulars: read-out: IC50 for inhibition of cyclooxygenase. The method, then:
The in-vitro effect on prostaglandin cyclooxygenase is measured by a modification of the method of Takeguchi et al described in Biochemistry 10, 2372 (1971); the testing procedure is as follows: Lyophilized sheep seminal vesicle microsomes are utilized as the prostaglandin-synthesizing enzyme preparation. The conversion of ^14 C-arachidonic acid to PGE2 is measured. Test compounds (dissolved in buffer, or if necessary, in small amount of ethanol) are added to the incubation mixture. The prostaglandins are extracted and separated by thin-layer chromatography; the plates are scanned, the radioactive zones corresponding to PGE2 are transferred to liquid scintillation vials and counted for radioactivity. IC50 values for inhibition are determined graphically as the concentration of test compound causing a 50% reduction in the amount of PGE2 synthesized.

For test [3], the target named is T3, prostacyclin (PGI2) synthetase (microsomal fraction of bovine aorta) (Bos taurus, UniProt Q29626).
T3 construct: crude PGI2 synthetase in the form of a microsomal fraction of bovine aorta; from tissue; host or cells: bovine aorta, microsomal fraction
T3 sequence (Q29626 1-500): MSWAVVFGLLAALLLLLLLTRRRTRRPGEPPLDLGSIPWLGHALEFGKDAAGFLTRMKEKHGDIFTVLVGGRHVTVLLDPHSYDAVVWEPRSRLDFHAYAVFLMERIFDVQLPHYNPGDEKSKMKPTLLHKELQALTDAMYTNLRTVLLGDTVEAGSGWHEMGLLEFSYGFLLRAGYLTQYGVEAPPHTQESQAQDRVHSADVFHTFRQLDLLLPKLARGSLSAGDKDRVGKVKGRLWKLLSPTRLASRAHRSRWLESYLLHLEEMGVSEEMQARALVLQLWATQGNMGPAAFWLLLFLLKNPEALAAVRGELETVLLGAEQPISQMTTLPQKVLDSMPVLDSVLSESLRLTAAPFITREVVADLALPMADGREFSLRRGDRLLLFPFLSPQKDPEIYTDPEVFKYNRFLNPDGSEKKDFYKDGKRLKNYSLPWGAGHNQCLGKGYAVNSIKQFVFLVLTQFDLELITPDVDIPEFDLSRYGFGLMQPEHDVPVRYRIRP
Briefly: in-vitro effect on prostacyclin (PGI2) synthetase (6-keto-PGF1α/PGE2 ratio). The class given is biochemical. Particulars: read-out: IC50 for inhibition of prostacyclin synthetase. As for the experimental part: The in-vitro effect on prostacyclin (PGI2) synthetase is measured analogous to the method of Sun et al., Prostaglandins 14, 1055 (1977);
The testing procedure is as follows:
^14 C-Arachidonic acid is incubated with an enzyme mixture consisting of solubilized and partially purified prostaglandin cyclo-oxygenase from sheep seminal vesicles and crude PGI2 synthetase in the form of a microsomal fraction of bovine aorta.
Test compound (dissolved in buffer, or if necessary, in a small amount of ethanol) is placed in the incubation medium. The reaction mixture is incubated in 100 mM Tris HCl (pH 7.5) for 30 minutes at 37° C., acidified to pH 3 and extracted into ethyl acetate. The extract is evaporated to dryness; the residue is dissolved in acetone, spotted on thin-layer plates and chromatographed in a solvent system described by Sun et al. The radioactive zones are located with a scanner; those corresponding to 6-keto-PGF1 α (a stable end product of prostacyclin biotrasformation) and PGE2 are transferred to liquid scintillation vials and counted. The ratio of counts for 6-keto-PGF1 α/PGE2 is calculated for each concentration of test compound used. IC50 values for inhibition are determined graphically as the concentration of test compound at which the ratio of 6-keto-PGF1 α/PGE2 is reduced to 50% of the control value.

The subject of test [4] is plasma thromboxane B2 and 6-keto-PGF1α. In words: reduction of plasma levels of thromboxane in vivo after arachidonic acid challenge. Particulars: guinea pig. The method, then:
The reduction of plasma levels of thromboxane is determined in vivo on administration of the test compound to guinea pigs in the following manner:
Guinea pigs are dosed with vehicle or test drug and injected intraperitoneally with arachidonic acid (40 mg/kg) 2 hours later. Blood is collected for analysis 1 hour after the arachidonic acid challenge. A single aliquot of each plasma sample is assayed for thromboxane B2 and another aliquot for 6-keto-PGF1 α, the stable metabolites of thromboxane A2 and prostacyclin (PGI2) respectively.

The next test relates to bleeding time. Briefly: prolongation of bleeding time in the rat. Particulars: rats, dose of about 1 mg/kg i.p. or lower. The class given is in vivo. From the text:
For example, in thromboembolism, specific inhibition of the enzyme thromboxane synthetase reduces arachidonic acid induced platelet aggregation involved in clot formation. Experimentally, prolongation of bleeding time in the rat is indicative of a beneficial antithrombotic effect.

Test [5] deals with arachidonic acid induced pulmonary obstruction. In words: protection against sudden death due to arachidonic acid induced pulmonary obstruction. Particulars: mice, orally, 100 mg/kg. The format is in vivo.

Consider `O=C(O)CCCCCc1cccc2cncn12` [Example 2, 5-(5-carboxypentyl)-imidazo[1,5-a]pyridine], for which the IC50 in test [1] was roughly 0.003 µM; in test [2], greater than 100 µM; in test [3], greater than 100 µM. In addition, in test [4] (oral dose 0.25 mg/kg or higher doses), the “decrease with respect to prostacyclin (plasma 6-keto-PGF1α)” value was “no significant decrease”. Moreover, the “reduction of plasma levels of thromboxane B2” value in test [4] (oral dose as low as 0.25 mg/kg) was “over 50%”. In addition, the bleeding time result with bleeding time is listed as “prolongs bleeding time”. For the same molecule, the “protection against sudden death” value in test [5] is on record as “protects against sudden death”.
